Columns and labels:
AML [1] = test: Tipifarnib treatment of previously untreated elderly or unfit AML patients, survival analysed by mRNA expression of FLT3LG/CXCR4; assay type: in vivo, human
Protocol: (§1) Previous clinical studies with tipifarnib were performed in newly diagnosed AML in elderly patients with poor risk AML or relapsed and refractory AML. In these studies, patient selection was not based on genetic markers. Anecdotal evidence of tipifarnib single agent activity was reported.

AML [2] = test: Tipifarnib treatment of relapsed or refractory AML patients, survival analysed by mRNA expression of FLT3LG/CXCR4; assay type: in vivo, human
Protocol: as §1

[3] = highest FLT3LG expression tertile
[4] = second FLT3LG expression tertile
[5] = third tertile (lowest level of FLT3LG expression)
[6] = first three quartiles of FLT3LG expression
[7] = highest FLT3LG tertile and highest CXCR4 tertile (N=10)
[8] = highest quintile of FLT3LG expression
[9] = rest of patients with either lower FLT3LG or lower CXCR4 expression (N=47)

## Cn1cncc1[C@@](N)(c1ccc(Cl)cc1)c1ccc2c(c1)c(-c1cccc(Cl)c1)cc(=O)n2C [tipifarnib]
AML [1]; [3]
  median overall survival (mOS): 548 days
  median progression free survival (mPFS): 247 days
AML [1]; [4]
  median overall survival (mOS): 153 days
  median progression free survival (mPFS): 64 days
AML [1]; [5]
  median overall survival (mOS): 76 days
  median progression free survival (mPFS): 35 days
AML [2]; [6]
  median overall survival (mOS): 54 to 83 days
  median progression free survival (mPFS): 28 to 29 days
AML [2]; [7]
  median overall survival (mOS): 234 days
  median progression free survival (mPFS): 148 days
AML [2]; [8]
  median overall survival (mOS): 234 days
  median progression free survival (mPFS): 119 days
AML [2]; [9]
  median overall survival (mOS): 84 days
  median progression free survival (mPFS): 29 days

— patent US20220305001A1, “METHODS OF TREATING ACUTE MYELOID LEUKEMIA WITH FARNESYLTRANSFERASE INHIBITORS” (Kura Oncology, Inc., priority 2019, published 2022)
